pIC50: −log10 of the molar value. Entries after “also recorded” stand apart in the source; their conditions may differ.
What was measured:
[1] = biological target: T1, mTRPV3 (Mus musculus, UniProt Q8K424); assay: Whole-cell patch clamp of 2-APB induced current in mTRPV3-HEK-293 cells; type: cell-based
T1 construct: expressed in transfected cells
T1 sequence (Q8K424 1-791): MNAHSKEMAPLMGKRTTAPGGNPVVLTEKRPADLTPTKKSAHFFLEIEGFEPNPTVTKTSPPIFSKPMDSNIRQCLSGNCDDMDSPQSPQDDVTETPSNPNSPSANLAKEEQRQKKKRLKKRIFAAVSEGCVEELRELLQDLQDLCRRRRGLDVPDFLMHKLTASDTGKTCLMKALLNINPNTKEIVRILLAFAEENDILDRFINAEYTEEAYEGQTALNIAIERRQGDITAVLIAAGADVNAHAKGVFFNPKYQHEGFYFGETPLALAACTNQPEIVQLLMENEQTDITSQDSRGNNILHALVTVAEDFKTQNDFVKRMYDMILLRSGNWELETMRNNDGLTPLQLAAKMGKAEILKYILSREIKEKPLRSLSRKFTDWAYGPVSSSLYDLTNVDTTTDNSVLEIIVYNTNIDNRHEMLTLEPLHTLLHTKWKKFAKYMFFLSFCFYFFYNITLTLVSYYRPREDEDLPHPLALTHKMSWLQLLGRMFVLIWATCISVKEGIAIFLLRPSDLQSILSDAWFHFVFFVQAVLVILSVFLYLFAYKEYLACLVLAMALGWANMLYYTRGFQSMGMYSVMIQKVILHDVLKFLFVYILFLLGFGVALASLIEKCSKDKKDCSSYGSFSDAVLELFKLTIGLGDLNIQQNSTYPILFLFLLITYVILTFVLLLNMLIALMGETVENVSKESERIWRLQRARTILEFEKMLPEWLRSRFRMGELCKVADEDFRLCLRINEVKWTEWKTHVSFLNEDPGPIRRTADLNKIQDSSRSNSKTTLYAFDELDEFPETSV
Description: mTRPV3 plasmids were donated by Professor Jie Zheng from UC Davis. Transfection steps were as follows: HEK-293 cells with a confluence ranging from 70% to 80% and a good growth state were seeded into T-60 small dishes the day before transfection, each small dish contained 4×10^5 cells, and the cells were cultured without penicillin/streptomycin overnight at 37° C. in 5% CO2. 10 μL of plasmids (plasmid concentration was 1000 ng/μL) were diluted with 250 μl of DMEM (article number: 12800017, Gibco), and meanwhile, 10 μL of Lipofectamine 2000 (article number: 11668027, Gibco) was diluted into 250 μL of DMEM. […] Monoclone cells were selected by a limiting dilution method: the screened cells were digested and counted, and seeded into a 96-well plate in sequence at densities of 10^4 cells/well, 10^3 cells/well, 10^2 cells/well, 10 cells/well, and 1 cell/well. Under a fluorescence microscope, wells of separate cells with green fluorescence were labeled, and cells amplified from the wells were HEK-293 cells stably transfecting the mTRPV3. […] HEK-293 cells stably transecting mTRPV3 (mTRPV3-HEK-293) were seeded into T-60 small dishes with a confluence ranging from 20% to 30%, and whole cell current was recorded by a patch clamp amplification system next day. […]

[2] = test system: mouse psoriasis model induced by 5% IMQ; assay: Histopathological examination (HE staining, epidermal thickness) of mouse psoriasis model under drug intervention; type: in vivo; settings: subcutaneous injection, 5% IMQ model
Description: After sacrifice of the mice, skin tissues were collected, fixed with 10% (mass fraction) paraformaldehyde solution, embedded in paraffin, and then subjected to 3 μm slicing and HE staining. An Eclipse Ti inverted microscope (Nikon Corporation, Tokyo, Japan) was used to observe and take a photo at 400-times magnification, and NIS-element BR software (Nikon Corporation, Tokyo, Japan) was used to measure an epidermal thickness of the skin. Six fields of view were randomly selected for each section. […] It should be noted that measurement data was represented by mean±standard deviation (mean±SD), and was detected by One-Way ANOVA, wherein ** represented that P<0.01, which was relative to the vaseline group.

[3] = test system: mouse psoriasis model induced by 5% IMQ; assay: Content of related inflammatory factors (ELISA) in skin of mouse psoriasis model; type: in vivo
Description: Contents of IL17, IL23, CXCL15 and myeloperoxidase (MPO) in the skin of the mouse were detected by enzyme-linked immunosorbent assay (ELISA), and ELISA kits for various inflammatory factors were all purchased from ELISA Biotechnology Co., Ltd. Specific operation steps were briefly described as follows according to instructions: 50 mg of fresh skin sample was added with 450 μL of PBS (pH=7.2 to 7.4), homogenized on ice, and centrifuged at 5000 rpm for 15 minutes, and then a supernatant was used for detection. A standard substance was diluted according to a proportion, and a blank well, a standard substance well and a well for sample to be detected were set respectively. 50 μL of standard substance was accurately loaded to an ELISA coating plate, and 40 μL of sample diluent was added into the well for sample to be detected firstly, and then added with 10 μL of sample to be detected (a final dilution concentration of the sample was 5 times). The sample was loaded to bottoms of the wells in the ELISA plate without touching walls of the wells to the greatest extent, and then shaken and mixed gently. After sealing the plate with a microplate sealer, the mixture was incubated at 37° C. for 30 minutes. A 30-times concentrated cleaning solution was diluted 30 times with distilled water for later use. The microplate sealer was carefully removed, the liquid was discarded, and the remaining was subjected to spin-drying, and the cleaning solution was fully filled into each well, stood for 30 seconds and then discarded. The steps were repeated for 5 times, and then the mixture was patted dry. 50 μL of ELISA reagent was added into each well, except for the blank well. After sealing the plate with a microplate sealer, the mixture was incubated at 37° C. for 30 minutes. The microplate sealer was carefully removed, the liquid was discarded, and the remaining was subjected to spin-drying, and the cleaning solution was fully filled into each well, stood for 30 seconds and then discarded. […] An absorbance (OD value) of each well was measured sequentially at a wavelength of 450 nm. […]

[4] = ELISA, vs modeling mouse applied with IMQ

pIC50 ([1]; whole-cell patch clamp, mTRPV3-HEK-293, 2-APB 100 μM, nonlinear fitting): 6.00
Structure (SMILES): O=c1cc(-c2ccc(O)cc2)oc2cc(O)c(O)c(O)c12 [Scutellarein]
inhibition of whole-cell current induced by 2-APB ([1]; Scutellarein 0.3-30 μM, 2-APB 100 μM, mTRPV3-HEK-293): could inhibit the whole-cell current induced by the 2-APB and had a dose dependence; also recorded: obvious inhibitory effect
epidermal thickness at lesion part [2]: significantly reduce
pathological changes of the skin induced by imiquimod [2]: could improve the above pathological changes
secretion of the related inflammatory factors ([3]; 5% IMQ model): obviously reduce
content of CXCL15 in the skin [3, 4]: significantly lower
content of MPO in the skin [3, 4]: significantly lower

Source: US11304926B2, “Application of transient receptor potential cation channel TRPV3 in developing drug for preventing or treating psoriasis” (CHINA PHARMACEUTICAL UNIVERSITY, priority 2019, dated 2022)
